*1 amine or outer side, *2 acyl side, *3 side chain or, on linkers, in order; H or OH if unused. Where a SMILES comes first, the peptide text is derived from it. The star is where a group is joined. X7 = O=C(OC[C@@H](COS(=O)(=O)O)OS(=O)(=O)O)*; X6 = O=C(OC[C@H](COS(=O)(=O)O)OS(=O)(=O)O)*; X12 = O=S(=O)(O)OC[C@H](CN*)OS(=O)(=O)O; X2 = O=S(=O)(O)OC[C@@H](CN*)OS(=O)(=O)O; NH(3-hydroxypropyl) = OCCCN*; X3 = O=C(OCCCOS(=O)(=O)O)*; X10 = O=C(OC[C@@H](O)CO)*; X11 = O=C(OC[C@H](O)CO)*; X9 = O=S(=O)(O)OCCCCN*; X5 = O=S(=O)(O)OCCCN*; CO = O=C([*:1])[*:2]; NH(CH2)4OH = OCCCCN*; X14 = OC[C@H](O)CN*; X4 = OC[C@@H](O)CN*; X13 = O=C(OCCCO)*
Experiments:
[1] = target: Amyloid-beta precursor protein (Homo sapiens) (UniProt P05067); assay: Inhibition of amyloid beta (1 to 42) aggregation in HBP assessed as beta sheet formation at 1:20 protein to compound ratio after 48 hrs by Th-T fluorescence assay relative to control; set-up: scale not given: the % may be the effect or the level left
[2] = target: Amyloid-beta precursor protein (Homo sapiens) (UniProt P05067); assay: Inhibition of amyloid beta (1 to 42)-mediated cytotoxicity in HBP assessed as cell death at 1:5 protein to compound ratio after 6 days by fluorescence assay relative to control; set-up: scale not given: the % may be the effect or the level left
[3] = Cytotoxicity against HBP assessed as cell death at 50 uM after 6 days by fluorescence assay; details: human, 144 h
[4] = target: Amyloid-beta precursor protein (Homo sapiens) (UniProt P05067); assay: Inhibition of monomeric amyloid beta (unknown origin)-mediated cytotoxicity at 1:5 protein to compound ratio by cell-based assay relative to control; details: concentration not given here
[5] = target: Amyloid-beta precursor protein (Homo sapiens) (UniProt P05067); assay: Inhibition of monomeric amyloid beta (unknown origin) aggregation at 1:20 protein to compound ratio relative to control; details: concentration not given here

Chain of Amyloid-beta precursor protein (Homo sapiens) (P05067 whole entry): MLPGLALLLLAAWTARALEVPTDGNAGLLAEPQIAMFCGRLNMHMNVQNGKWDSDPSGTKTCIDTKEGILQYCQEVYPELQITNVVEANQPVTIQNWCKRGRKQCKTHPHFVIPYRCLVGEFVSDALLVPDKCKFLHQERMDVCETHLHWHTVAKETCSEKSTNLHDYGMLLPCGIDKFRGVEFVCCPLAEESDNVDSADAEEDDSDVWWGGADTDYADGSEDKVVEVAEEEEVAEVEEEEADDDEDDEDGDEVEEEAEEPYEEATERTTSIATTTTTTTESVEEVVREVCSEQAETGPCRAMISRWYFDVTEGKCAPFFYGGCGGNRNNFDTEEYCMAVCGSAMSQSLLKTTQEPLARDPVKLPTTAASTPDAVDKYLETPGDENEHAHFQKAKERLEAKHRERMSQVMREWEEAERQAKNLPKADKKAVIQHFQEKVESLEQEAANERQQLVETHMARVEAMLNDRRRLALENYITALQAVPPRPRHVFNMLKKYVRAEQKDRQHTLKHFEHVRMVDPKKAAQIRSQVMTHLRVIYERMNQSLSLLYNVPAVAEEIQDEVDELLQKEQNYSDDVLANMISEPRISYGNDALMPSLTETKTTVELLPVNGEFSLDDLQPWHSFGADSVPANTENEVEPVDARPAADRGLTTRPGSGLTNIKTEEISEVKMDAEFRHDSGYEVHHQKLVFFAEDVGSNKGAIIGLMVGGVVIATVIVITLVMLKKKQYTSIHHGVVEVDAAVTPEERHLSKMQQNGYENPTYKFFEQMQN

Compound | Activity [1] | Activity [2] | Activity [3] | inhibition [4] | inhibition [5]
CC(C)C[C@H](NC(=O)OCC(CO)CO)C(=O)N1CCC[C@H]1C(=O)N[C@@H](Cc1ccccc1)C(=O)N[C@@H](Cc1ccccc1)C(=O)N[C@@H](CC(=O)O)C(=O)O | 76.4% | 81.1% | Non-toxic |  | 
CC(C)C[C@H](NC(=O)OCC(CO)CO)C(=O)N1CCC[C@@H]1C(=O)N[C@@H](Cc1ccccc1)C(=O)N[C@@H](Cc1ccccc1)C(=O)N[C@@H](CC(=O)O)C(=O)O | 87.9% | 94.8% |  |  | 
CC(C)C[C@H](NC(=O)OCC(COS(=O)(=O)O)CS(=O)(=O)O)C(=O)N1CCC[C@@H]1C(=O)N[C@@H](Cc1ccccc1)C(=O)N[C@@H](Cc1ccccc1)C(=O)N[C@@H](CC(=O)O)C(=O)O (some centres undefined) | 94.7% | 93.8% |  |  | 
CC(C)C[C@H](NC(=O)OCCCOS(=O)(=O)O)C(=O)N1CCC[C@H]1C(=O)N[C@@H](Cc1ccccc1)C(=O)N[C@@H](Cc1ccccc1)C(=O)N[C@@H](CC(=O)O)C(N)=O (X3-LPFFD-NH2) | 107% | 107% |  |  | 
CC(C)C[C@H](NC(=O)OC[C@H](COS(=O)(=O)O)OS(=O)(=O)O)C(=O)N1CCC[C@H]1C(=O)N[C@@H](Cc1ccccc1)C(=O)N[C@@H](Cc1ccccc1)C(=O)N[C@@H](CC(=O)O)C(N)=O (X6-LPFFD-NH2) | 95.1% | 91.4% |  |  | 
CC(C)C[C@H](NC(=O)OC[C@@H](COS(=O)(=O)O)OS(=O)(=O)O)C(=O)N1CCC[C@H]1C(=O)N[C@@H](Cc1ccccc1)C(=O)N[C@@H](Cc1ccccc1)C(=O)N[C@@H](CC(=O)O)C(N)=O (X7-LPFFD-NH2) | 96.3% | 95.9% |  |  | 
CC(C)C[C@H](NC(=O)OC[C@@H](O)CO)C(=O)N1CCC[C@H]1C(=O)N[C@@H](Cc1ccccc1)C(=O)N[C@@H](Cc1ccccc1)C(=O)N[C@@H](CC(=O)O)C(N)=O (X10-LPFFD-NH2) | 97% | 89.7% |  |  | 
CC(C)C[C@H](NC(=O)OC[C@H](O)CO)C(=O)N1CCC[C@H]1C(=O)N[C@@H](Cc1ccccc1)C(=O)N[C@@H](Cc1ccccc1)C(=O)N[C@@H](CC(=O)O)C(N)=O (X11-LPFFD-NH2) | 100% | 91.6% |  |  | 
CC(C)C[C@H](NC(=O)OCCCO)C(=O)N1CCC[C@H]1C(=O)N[C@@H](Cc1ccccc1)C(=O)N[C@@H](Cc1ccccc1)C(=O)N[C@@H](CC(=O)O)C(N)=O (X13-LPFFD-NH2) | 92.9% | 93% |  |  | 
CC(C)C[C@H](NC(=O)NCCCO)C(=O)N1CCC[C@H]1C(=O)N[C@@H](Cc1ccccc1)C(=O)N[C@@H](Cc1ccccc1)C(=O)N[C@@H](CC(=O)O)C(N)=O ({NH(3-hydroxypropyl)-CO}-LPFFD-NH2) | 82.7% | 96.1% |  |  | 
CC(C)C[C@H](NC(=O)NCCCCO)C(=O)N1CCC[C@H]1C(=O)N[C@@H](Cc1ccccc1)C(=O)N[C@@H](Cc1ccccc1)C(=O)N[C@@H](CC(=O)O)C(N)=O ({NH(CH2)4OH-CO}-LPFFD-NH2) | 100% | 99.6% |  |  | 
CC(C)C[C@H](NC(=O)NC[C@H](COS(=O)(=O)O)OS(=O)(=O)O)C(=O)N1CCC[C@H]1C(=O)N[C@@H](Cc1ccccc1)C(=O)N[C@@H](Cc1ccccc1)C(=O)N[C@@H](CC(=O)O)C(N)=O ({X2-CO}-LPFFD-NH2) | 120% | 92% |  |  | 
CC(C)C[C@H](NC(=O)NC[C@H](O)CO)C(=O)N1CCC[C@H]1C(=O)N[C@@H](Cc1ccccc1)C(=O)N[C@@H](Cc1ccccc1)C(=O)N[C@@H](CC(=O)O)C(N)=O ({X4-CO}-LPFFD-NH2) | 98.7% | 92.5% |  |  | 
CC(C)C[C@H](NC(=O)NCCCOS(=O)(=O)O)C(=O)N1CCC[C@H]1C(=O)N[C@@H](Cc1ccccc1)C(=O)N[C@@H](Cc1ccccc1)C(=O)N[C@@H](CC(=O)O)C(N)=O ({X5-CO}-LPFFD-NH2) | 83% | 95.9% |  |  | 
CC(C)C[C@H](NC(=O)NCCCCOS(=O)(=O)O)C(=O)N1CCC[C@H]1C(=O)N[C@@H](Cc1ccccc1)C(=O)N[C@@H](Cc1ccccc1)C(=O)N[C@@H](CC(=O)O)C(N)=O ({X9-CO}-LPFFD-NH2) | 100% | 96.5% |  |  | 
CC(C)C[C@H](NC(=O)NC[C@@H](COS(=O)(=O)O)OS(=O)(=O)O)C(=O)N1CCC[C@H]1C(=O)N[C@@H](Cc1ccccc1)C(=O)N[C@@H](Cc1ccccc1)C(=O)N[C@@H](CC(=O)O)C(N)=O ({X12-CO}-LPFFD-NH2) | 127% | 92% |  |  | 
CC(C)C[C@H](NC(=O)NC[C@@H](O)CO)C(=O)N1CCC[C@H]1C(=O)N[C@@H](Cc1ccccc1)C(=O)N[C@@H](Cc1ccccc1)C(=O)N[C@@H](CC(=O)O)C(N)=O ({X14-CO}-LPFFD-NH2) | 98.7% | 96.6% |  |  | 
Ac-LPFFD-NH2 | 51.9% | 51.8% |  | 50% | 50%
